Results as given in paper PMC6117412, “Comprehensive Study of the Enzymatic Catalysis of the Electrochemical Oxygen Reduction Reaction (ORR) by Immobilized Copper Efflux Oxidase (CueO) From Escherichia coli” (Frontiers in Chemistry, 2018).

Target: T1, CueO (copper efflux oxidase) (Escherichia coli, UniProt P36649)
T1 sequence (P36649 29-516): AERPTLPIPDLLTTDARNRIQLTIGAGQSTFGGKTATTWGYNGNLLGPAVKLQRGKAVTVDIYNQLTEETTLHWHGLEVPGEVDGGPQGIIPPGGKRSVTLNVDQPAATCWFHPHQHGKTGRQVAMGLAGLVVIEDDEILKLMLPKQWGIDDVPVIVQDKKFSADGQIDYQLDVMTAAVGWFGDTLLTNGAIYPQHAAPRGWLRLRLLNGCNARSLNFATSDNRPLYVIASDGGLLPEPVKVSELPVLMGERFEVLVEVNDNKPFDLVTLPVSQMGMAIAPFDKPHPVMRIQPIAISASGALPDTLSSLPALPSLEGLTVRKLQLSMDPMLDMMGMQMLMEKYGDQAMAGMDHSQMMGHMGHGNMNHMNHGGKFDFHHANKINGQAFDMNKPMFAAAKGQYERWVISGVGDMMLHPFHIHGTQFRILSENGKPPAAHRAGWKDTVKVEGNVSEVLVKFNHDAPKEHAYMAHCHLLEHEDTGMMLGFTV
Conditions: immobilised on cysteamine-modified polycrystalline Au; O2-saturated phosphate buffer; 100-200 mM fluoride; direct electron transfer

## F [F−, sodium fluoride]
  cyclic voltammetry and chronoamperometry of electrocatalytic O2 reduction: the current density decreases significantly after the addition of fluoride
